Patent US20200002303A1, “C-GLYCOSIDE COMPOUNDS USEFUL FOR TREATING DISEASE” (Fimbrion Therapeutics, Inc., priority 2016, published 2020)

These compounds were tested against T1, FimH (Escherichia coli, UniProt Q1R2J4). Settings: concentration reducing bacterial agglutination of guinea pig red blood cells by greater than 90%; UTI89 bacteria.
T1 construct: performed with UTI89 bacteria and guinea pig red blood cells; endogenous in cells; host or cells: UTI89 bacteria (whole cells, type 1 piliated)
Assay type: cell-based
Procedure: The hemagglutination inhibition (HAI) assay was performed with UTI89 bacteria and guinea pig red blood cells, as previously described (S. J. Hultgren, W. R. Schwan, A. J. Schaeffer, J. L. Duncan Infect. Immun. 1986, 54, 613-620).

Compound	HAI titer EC>90 [µM]
CNC(=O)c1cccc(-c2ccc(C(OC)[C@H]3O[C@H](CO)[C@@H](O)[C@H](O)[C@@H]3O)cc2C)c1 (single isomer, unassigned) [Example 8]	0.5
Cc1cc(-c2ccc3cc[nH]c(=O)c3c2)cc(C)c1[C@@H](O)[C@H]1OC(CO)[C@@H](O)[C@H](O)C1O (single isomer, unassigned) [Example 29]	0.108
Cc1cc(-c2ccc3cc[nH]c(=O)c3c2)cc(C)c1[C@H](O)[C@H]1OC(CO)[C@@H](O)[C@H](O)C1O (single isomer, unassigned) [Example 30]	0.406
CNC(=O)c1cccc(-c2ccc([C@H](O)[C@H]3OC(CO)[C@@H](O)[C@H](O)C3O)c(C(F)(F)F)c2)c1 (single isomer, unassigned) [Example 40]	5
Cc1cc(-c2cccc3c2CCN(C)C3)ccc1[C@@H](O)[C@H]1O[C@H](CO)[C@@H](O)[C@H](O)[C@@H]1O [Example 5, (2R,3S,4S,5S,6R)-2-((R)-hydroxy(2-methyl-4-(2-methyl-1,2,3,4-tetrahydroisoquinolin-5-yl)phenyl)methyl)-6-(hydroxymethyl)tetrahydro-2H-pyran-3,4,5-triol]	1
CNC(=O)c1cccc(-c2ccc([C@@H](N)[C@H]3O[C@H](CO)[C@@H](O)[C@H](O)[C@@H]3O)c(C)c2)c1 [Example 6, 4′-((R)-amino((2R,3S,4R,5S,6R)-3,4,5-trihydroxy-6-(hydroxymethyl)tetrahydro-2H-pyran-2-yl)methyl)-N,3′-dimethylbiphenyl-3-carboxamide]	0.5
CNC(=O)c1cccc(-c2ccc([C@@H](OC)[C@H]3O[C@H](CO)[C@@H](O)[C@H](O)[C@@H]3O)c(C)c2)c1 [Example 7, 4′-((R)-methoxy((2S,3S,4S,5S,6R)-3,4,5-trihydroxy-6-(hydroxymethyl)tetrahydro-2H-pyran-2-yl)methyl)-N,3′-dimethylbiphenyl-3-carboxamide]	2
CNC(=O)c1cccc(-c2ccc(C(F)(F)[C@H]3O[C@H](CO)[C@@H](O)[C@H](O)[C@@H]3O)c(C)c2)c1 [Example 9, 4′-(difluoro((2S,3S,4S,5S,6R)-3,4,5-trihydroxy-6-(hydroxymethyl)tetrahydro-2H-pyran-2-yl)methyl)-N,3′-dimethylbiphenyl-3-carboxamide]	1.5
Cc1cc(-c2ccc3cnccc3c2)ccc1[C@@H](O)[C@H]1O[C@H](CO)[C@@H](O)[C@H](O)[C@@H]1O [Example 10, (2R,3S,4S,5S,6R)-2-((R)-Hydroxy (4-(isoquinolin-6-yl)-2-methylphenyl)methyl)-6-(hydroxymethyl)-tetrahydro-2H-pyran-3,4,5-triol]	0.052
Cc1cc(-c2ccc3ccn(C)c(=O)c3c2)ccc1[C@@H](O)[C@H]1O[C@H](CO)[C@@H](O)[C@H](O)[C@@H]1O [Example 11, 7-(4-((R)-Hydroxy ((2R,3S,4S,5S,6R)-3,4,5-trihydroxy-6-(hydroxymethyl)-tetrahydro-2H-pyran-2-yl)methyl)-3-methylphenyl)-2-methylisoquinolin-1 (2H)-one]	0.011
Cc1cc(-c2ccc3c(c2)C(=O)N(C)CC3)ccc1[C@@H](O)[C@H]1O[C@H](CO)[C@@H](O)[C@H](O)[C@@H]1O [Example 12, 7-(4-((R)-Hydroxy ((2R,3S,4S,5S,6R)-3,4,5-trihydroxy-6-(hydroxymethyl)-tetrahydro-2H-pyran-2-yl)methyl)-3-methylphenyl)-2-methyl-3,4-dihydroisoquinolin-1 (2H)-one]	0.008
Cc1cc(-c2cccc3c2CNC3=O)ccc1[C@@H](O)[C@H]1O[C@H](CO)[C@@H](O)[C@H](O)[C@@H]1O [Example 13, 4-(4-((R)-Hydroxy ((2R,3S,4S,5S,6R)-3,4,5-trihydroxy-6-(hydroxymethyl)-tetrahydro-2H-pyran-2-yl)methyl)-3-methylphenyl)isoindolin-1-one]	0.083
Cc1cc(-c2ccc3ncccc3c2)ccc1[C@@H](O)[C@H]1O[C@H](CO)[C@@H](O)[C@H](O)[C@@H]1O [Example 14, (2R,3S,4S,5S,6R)-2-((R)-Hydroxy (2-methyl-4-(quinolin-6-yl)phenyl)methyl)-6-(hydroxymethyl)-tetrahydro-2H-pyran-3,4,5-triol]	0.032
Cc1cc(-c2ccc3cccnc3c2)ccc1[C@@H](O)[C@H]1O[C@H](CO)[C@@H](O)[C@H](O)[C@@H]1O [Example 15, (2R,3S,4S,5S,6R)-2-((R)-Hydroxy (2-methyl-4-(quinolin-7-yl)phenyl)methyl)-6-(hydroxymethyl)-tetrahydro-2H-pyran-3,4,5-triol]	0.015
Cc1cc(-c2ccc3ncn(C)c3c2)ccc1[C@@H](O)[C@H]1O[C@H](CO)[C@@H](O)[C@H](O)[C@@H]1O [Example 16, (2R,3S,4S,5S,6R)-2-((R)-Hydroxy (2-methyl-4-(3-methyl-3H-benzo[d]imidazol-5-yl)phenyl)methyl)-6-(hydroxymethyl)-tetrahydro-2H-pyran-3,4,5-triol]	0.042
Cc1cc(-c2ccc3nc[nH]c3c2)ccc1[C@@H](O)[C@H]1O[C@H](CO)[C@@H](O)[C@H](O)[C@@H]1O [Example 17, (2R,3S,4S,5S,6R)-2-((R)-(4-(3H-Benzo[d]imidazol-5-yl)-2-methylphenyl) (hydroxy)methyl)-6-(hydroxymethyl)-tetrahydro-2H-pyran-3,4,5-triol]	0.037
Cc1cc(-c2cccc3c(N)n[nH]c23)ccc1[C@@H](O)[C@H]1O[C@H](CO)[C@@H](O)[C@H](O)[C@@H]1O [Example 18, (2R,3S,4S,5S,6R)-2-((R)-(4-(3-Amino-1H-indazol-7-yl)-2-methylphenyl) (hydroxy)methyl)-6-(hydroxymethyl)-tetrahydro-2H-pyran-3,4,5-triol]	0.006
Cc1cc(-c2ccc3c(c2)C(=O)NC3)ccc1[C@@H](O)[C@H]1O[C@H](CO)[C@@H](O)[C@H](O)[C@@H]1O [Example 19, 6-(4-((R)-Hydroxy ((2R,3S,4S,5S,6R)-3,4,5-trihydroxy-6-(hydroxymethyl)-tetrahydro-2H-pyran-2-yl)methyl)-3-methylphenyl)isoindolin-1-one]	0.016
Cc1cc(-c2ccc3onc(C)c3c2)ccc1[C@@H](O)[C@H]1O[C@H](CO)[C@@H](O)[C@H](O)[C@@H]1O [Example 20, (2R,3S,4S,5S,6R)-2-((R)-Hydroxy (2-methyl-4-(3-methylbenzo[d]isoxazol-5-yl)phenyl)methyl)-6-(hydroxymethyl)-tetrahydro-2H-pyran-3,4,5-triol]	0.068
Cc1cc(-c2ccc3ccncc3c2)ccc1[C@@H](O)[C@H]1O[C@H](CO)[C@@H](O)[C@H](O)[C@@H]1O [Example 21, (2R,3S,4S,5S,6R)-2-((R)-Hydroxy (4-(isoquinolin-7-yl)-2-methylphenyl)methyl)-6-(hydroxymethyl)-tetrahydro-2H-pyran-3,4,5-triol]	0.016
Cc1cc(-c2ccnc(Cl)c2)ccc1[C@@H](O)[C@H]1O[C@H](CO)[C@@H](O)[C@H](O)[C@@H]1O [Example 22, (2R,3S,4S,5S,6R)-2-((R)-(4-(2-Chloropyridin-4-yl)-2-methylphenyl) (hydroxy)methyl)-6-(hydroxymethyl)-tetrahydro-2H-pyran-3,4,5-triol]	0.027
Cc1cc(-c2ccnc(-c3ccnc(Cl)c3)c2)ccc1[C@@H](O)[C@H]1O[C@H](CO)[C@@H](O)[C@H](O)[C@@H]1O [Example 23, (2R,3S,4S,5S,6R)-2-((R)-(4-(2′-Chloro-[2,4′-bipyridin]-4-yl)-2-methylphenyl) (hydroxy)methyl)-6-(hydroxymethyl)tetrahydro-2H-pyran-3,4,5-triol]	0.008
CNc1cc(-c2ccc([C@@H](O)[C@H]3O[C@H](CO)[C@@H](O)[C@H](O)[C@@H]3O)c(C)c2)ccn1 [Example 24, (2R,3S,4S,5S,6R)-2-((R)-Hydroxy (2-methyl-4-(2-(methylamino)pyridin-4-yl)phenyl)methyl)-6-(hydroxymethyl)-tetrahydro-2H-pyran-3,4,5-triol]	0.032
Cc1cc(-c2ccnc(N3CCOCC3)c2)ccc1[C@@H](O)[C@H]1O[C@H](CO)[C@@H](O)[C@H](O)[C@@H]1O [Example 25, (2R,3S,4S,5S,6R)-2-((R)-Hydroxy (2-methyl-4-(2-morpholinopyridin-4-yl)phenyl)methyl)-6-(hydroxymethyl)-tetrahydro-2H-pyran-3,4,5-triol]	0.006
Cc1cc(-c2ccnc(N)c2)ccc1[C@@H](O)[C@H]1O[C@H](CO)[C@@H](O)[C@H](O)[C@@H]1O [Example 26, (2R,3S,4S,5S,6R)-2-((R)-(4-(2-Aminopyridin-4-yl)-2-methylphenyl) (hydroxy)methyl)-6-(hydroxymethyl)-tetrahydro-2H-pyran-3,4,5-triol]	0.039
Cc1cc(-c2ccnc(N(C)C)c2)ccc1[C@@H](O)[C@H]1O[C@H](CO)[C@@H](O)[C@H](O)[C@@H]1O [Example 27, (2R,3S,4S,5S,6R)-2-((R)-(4-(2-(Dimethylamino)pyridin-4-yl)-2-methylphenyl) (hydroxy)methyl)-6-(hydroxymethyl)-tetrahydro-2H-pyran-3,4,5-triol]	0.016
Cc1cc(-c2ccc3onc(N)c3c2)ccc1[C@@H](O)[C@H]1O[C@H](CO)[C@@H](O)[C@H](O)[C@@H]1O [Example 28, (2R,3S,4S,5S,6R)-2-((R)-(4-(3-Aminobenzo[d]isoxazol-5-yl)-2-methylphenyl) (hydroxy)methyl)-6-(hydroxymethyl)-tetrahydro-2H-pyran-3,4,5-triol]	0.027
